{"source": "patent US12398185B2", "about": "“Peptoid blocking O-GlcNAcylated NF-kappaB c-Rel” (Case Western Reserve University, priority 2019, dated 2025)", "key": {"Jurket cells": {"tested_on": "Jurket cells", "test": "Toxicity, cell death by propidium iodide staining and flow cytometry, Jurkat", "format": "cell-based", "procedure": "(§1) The toxicity of Compound 2 was studied at 100 μM and 200 μM concentrations in Jurket cells (FIG. 5, left), BJAB B cells (FIG. 5, middle left), human primary CD4^+ T cells (FIG. 5, middle right), and human primary monocytes (FIG. 5, right). Cell death was assessed by propidium iodide staining and flow cytometry. […] Treatment with cycloheximide (CHX) (Sigma Aldrich), a generic inhibitor of translation, was used as a positive control for cell death induction."}, "BJAB B cells": {"tested_on": "BJAB B cells", "test": "Toxicity, cell death by propidium iodide staining and flow cytometry, BJAB", "format": "cell-based", "procedure": "as §1"}, "[1]": {"tested_on": "human primary CD4+ T cells", "test": "Toxicity, cell death by propidium iodide staining and flow cytometry, primary CD4+ T cells", "format": "cell-based", "procedure": "as §1"}, "O-GlcNAcylated c-Rel [2]": {"target": "T1, O-GlcNAcylated c-Rel (Homo sapiens, UniProt Q04864)", "T1 construct": "endogenous in cells; host or cells: Jurkat T cells", "T1 sequence (Q04864 1-619)": "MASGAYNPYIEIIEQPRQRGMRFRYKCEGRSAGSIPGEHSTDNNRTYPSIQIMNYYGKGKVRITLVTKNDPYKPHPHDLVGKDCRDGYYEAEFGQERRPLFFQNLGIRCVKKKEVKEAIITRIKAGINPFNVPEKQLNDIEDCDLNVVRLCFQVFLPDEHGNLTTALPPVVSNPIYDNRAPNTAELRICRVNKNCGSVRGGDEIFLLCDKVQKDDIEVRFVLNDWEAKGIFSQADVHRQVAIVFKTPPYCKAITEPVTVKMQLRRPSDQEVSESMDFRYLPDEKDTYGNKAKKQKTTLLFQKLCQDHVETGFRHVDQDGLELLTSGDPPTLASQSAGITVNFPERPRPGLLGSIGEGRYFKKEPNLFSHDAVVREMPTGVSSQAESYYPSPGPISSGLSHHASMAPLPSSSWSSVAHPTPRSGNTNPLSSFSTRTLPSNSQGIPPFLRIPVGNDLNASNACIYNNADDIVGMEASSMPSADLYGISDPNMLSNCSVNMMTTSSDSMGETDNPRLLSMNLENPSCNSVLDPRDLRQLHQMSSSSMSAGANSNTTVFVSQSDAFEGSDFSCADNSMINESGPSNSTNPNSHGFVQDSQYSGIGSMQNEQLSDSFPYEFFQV", "test": "TCR-induced O-GlcNAcylation-dependent GMCSF and IL-2 expression in Jurkat T cells", "format": "cell-based", "details": "for expression of GMCSF / expression of IL-2: Compound 2 100 μM and 200 μM, 16 hours, FIG. 3", "procedure": "It is further known that a mutation of c-Rel at S350 completely abrogates T cell receptor (TCR)-induced O-GlcNAcylation-dependent expression of GMCSF and IL-2 (Ramakrishnan, 2013). Thus, the specific inhibition of c-Rel O-GlcNAcylation by Compound 2 was studied. Jurkat cells were grown in RPMI medium at 1×10^6 cells/2 mL. The cells were treated with compound 2 (100 μM and 200 μM) for 16 hours. Cell death was assessed by propidium iodide (Biolegend) staining and flow cytometry. Following treatment with Compound 2, the resulting expression of GMCSF and IL-2 was measured. […] Further, treatment with Compound 2 specifically affected only the O-GlcNAcylation-dependent enhancement of IL-2 and GMCSF expression.\nThe range of concentrations at which Compound 2 is effective in suppression O-GlcNAcylation c-Rel function was studied. Jurket cells were exposed to Compound 2 in concentrations of 2 mM, 500 μM, 200 μM, 100 μM, 50 μM and 10 μM peptoid on TCR-induced GMCSF expression.\nThe effect of the scrambled peptoid, Compound 3, was also studied (FIG. 3, bottom right panel)."}, "O-GlcNAcylated c-Rel [3]": {"target": "T2, O-GlcNAcylated c-Rel (Homo sapiens, UniProt Q04864)", "T2 construct": "endogenous in cells; host or cells: primary CD4+ T cells from human PBMC", "T2 sequence (Q04864 2-587 isoform Q04864-2)": "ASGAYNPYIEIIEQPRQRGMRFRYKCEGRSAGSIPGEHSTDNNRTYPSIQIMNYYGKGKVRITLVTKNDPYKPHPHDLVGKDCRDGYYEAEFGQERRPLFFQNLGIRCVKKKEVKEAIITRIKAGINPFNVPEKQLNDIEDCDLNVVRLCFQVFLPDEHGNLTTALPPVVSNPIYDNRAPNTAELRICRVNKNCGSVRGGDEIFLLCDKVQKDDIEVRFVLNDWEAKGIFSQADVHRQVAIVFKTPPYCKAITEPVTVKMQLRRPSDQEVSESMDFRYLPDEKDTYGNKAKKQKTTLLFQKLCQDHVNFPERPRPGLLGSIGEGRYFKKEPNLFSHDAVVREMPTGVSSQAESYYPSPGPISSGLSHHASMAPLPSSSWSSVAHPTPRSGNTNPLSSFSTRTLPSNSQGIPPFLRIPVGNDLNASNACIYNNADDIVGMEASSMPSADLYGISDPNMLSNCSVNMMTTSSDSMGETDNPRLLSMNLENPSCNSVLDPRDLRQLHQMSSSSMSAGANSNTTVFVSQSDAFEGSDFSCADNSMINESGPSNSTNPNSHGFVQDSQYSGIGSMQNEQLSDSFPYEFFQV", "test": "TCR-induced O-GlcNAcylated-c-Rel-dependent gene expression in primary CD4+ T cells", "format": "cell-based", "details": "100 μM", "procedure": "The effect of Compound 2 was studied in primary CD4^+ T cells isolated from human peripheral blood mononuclear cells. CD4+ T cells were […] were isolated by magnetic sorting (Miltenyi Biotec) and cultured in supplemented RPMI medium. Cells were treated with 100 μM of Compound 2 twice—at the start of the experiment and at 24 hrs."}, "B cells (BJAB)": {"tested_on": "B cells (BJAB)", "test": "Non-specific activity in B cells", "format": "cell-based", "procedure": "(§2) Compound 2 was further studied in B cells (BJAB) and macrophages (RAW 264.7). BJAB cells were grown in RPMI medium and RAW 264.7 cells were grown in DMEM medium supplemented with 100 U/mL penicillin/streptomycin, 4 mM L-glutamine and 10% fetal bovine serum."}, "macrophages (RAW 264.7)": {"tested_on": "macrophages (RAW 264.7)", "test": "Non-specific activity in macrophages", "format": "cell-based", "details": "RAW 264.7 cells", "procedure": "as §2"}, "human primary monocytes": {"tested_on": "human primary monocytes", "test": "Toxicity, cell death by propidium iodide staining and flow cytometry, primary monocytes", "format": "cell-based", "details": "100 μM and 200 μM, 40 hours post-treatment", "procedure": "as §1"}, "c-Rel": {"target": "T3, c-Rel (Homo sapiens, UniProt Q04864)", "T3 construct": "endogenous in cells", "T3 sequence (Q04864 1-619)": "T1 sequence (Q04864 1-619)", "test": "Nuclear translocation of c-Rel, Western blot of cytoplasmic and nuclear extracts", "format": "cell-based", "details": "FIG. 6 top", "procedure": "Activation of c-Rel involves signal-induced translocation of c-Rel from the cytoplasm to the nucleus and its subsequent DNA binding and gene expression. Thus, the effect of treatment with Compound 2 and Compound 3 (comparative) on nuclear translocation of c-Rel were examined. Cytoplasmic and nuclear extracts were prepared and Western blotting was performed as described in DeJesus, T. J. and Ramakrishnan, P. “NF-kappaB c-Rel Dictates the Inflammatory Threshold by Acting as a Transcriptional Repressor.” iScience 23, 100876 (2020)."}, "O-GlcNAcylated c-Rel [4]": {"target": "T1, O-GlcNAcylated c-Rel", "test": "Oligonucleotide pull down assay, c-Rel binding to CD28RE DNA", "details": "Jurket cells, anti-CD3/CD28 and Thiamet-G; Compound 2 at 50 μM", "procedure": "Oligonucleotide pull down assays were performed to examine whether Compound 2 binds to O-GlcNAcylated c-Rel and thus, competitively prevents its binding to CD28RE. Jurket cells were treated with anti-CD3/CD28 antibodies to trigger TCR activation and c-Rel nuclear translocation. Cells were contacted with Thiamet-G (an O-GlcNAse inhibitor) (Sigma Aldrich) to enhance cellular O-GlcNAcylation."}, "Leukemia K562 cells": {"tested_on": "Leukemia K562 cells", "test": "Cell death in leukemia K562 cells", "format": "cell-based", "details": "Compound 2 at 100 μM; compared with OSMI1 at 50 μM; FIG. 8", "procedure": "The effect of Compound 2 on […] cells was studied. Leukemia K562 cells were treated with HBP inhibitor OSMI1 (50 μM) or Compound 2 (100 μM). Scrambled peptoid Compound 3 was used as a control."}, "[5]": {"details": "human primary T-cells, treated twice (start and 24 hrs)"}}, "note": "Non-standard residues stand in square brackets, D forms with d. Residues, ends and D or L forms follow the SMILES beside them. NFurfurylGly = O=C(O)CNCc1ccco1; Gly(N-CH2CH2OH) = O=C(O)CNCCO; Nphe = O=C(O)CNCc1ccccc1; NPrGly = CCCNCC(=O)O"}
{"smiles": "C[C@@H]1C[C@@H]([C@H](O)CC2CC(=O)NC(=O)C2)C(=O)[C@@H](C)C1", "note": "[CHX, cycloheximide, reference compound]", "values": [{"measurement": "cell death, positive control", "setting": "Jurket cells; Jurkat cells, 5 μg/mL, 16 hours post-treatment", "value": "significant cell death"}, {"measurement": "cell death, positive control", "setting": "BJAB B cells; 5 μg/mL, 16 hours post-treatment", "value": "significant cell death"}, {"measurement": "cell death, positive control", "setting": "[1]; human primary T cells, 5 μg/mL, 16 hours post-treatment", "value": "significant cell death"}]}
{"smiles": "CCCNCC(=O)N(CC(=O)N(CC(=O)N(CCO)CC(N)=O)Cc1ccccc1)Cc1ccco1", "note": "[Compound 2] (H-[NPrGly][NFurfurylGly][Nphe][Gly(N-CH2CH2OH)]-NH2)", "values": [{"measurement": "TCR-induced expression levels of IL-2 and GMCSF (not O-GlcNAcylation-dependent)", "setting": "O-GlcNAcylated c-Rel [2]", "value": "did not block"}, {"measurement": "O-GlcNAcylation-dependent GMCSF expression", "setting": "O-GlcNAcylated c-Rel [2]; 200 μM", "value": "near complete suppression"}, {"measurement": "GMCSF expression levels at higher concentrations", "setting": "O-GlcNAcylated c-Rel [2]; 500 μM and 2 mM", "value": "did not further decrease"}, {"measurement": "expression of GMCSF", "setting": "O-GlcNAcylated c-Rel [2]", "value": "significantly decreased"}, {"measurement": "expression of IL-2", "setting": "O-GlcNAcylated c-Rel [2]", "value": "significantly decreased"}, {"measurement": "TCR-induced O-GlcNAcylation-dependent increase in expression of GMCSF", "setting": "O-GlcNAcylated c-Rel [3]; [5]", "value": "effectively and significantly decreased"}, {"measurement": "TCR-induced O-GlcNAcylation-dependent increase in expression of IL-2", "setting": "O-GlcNAcylated c-Rel [3]; [5]", "value": "effectively and significantly decreased"}, {"measurement": "TCR-induced expression level of GMCSF, IL-2 and other NF-kappaB-induced genes such as A20 and I-kappa-B-alpha", "setting": "O-GlcNAcylated c-Rel [3]; primary T cells", "value": "did not block"}, {"measurement": "non-specific activity", "setting": "B cells (BJAB)", "value": "does not exhibit any non-specific activity"}, {"measurement": "non-specific activity", "setting": "macrophages (RAW 264.7)", "value": "does not exhibit any non-specific activity"}, {"measurement": "cell death", "setting": "Jurket cells; Jurket cells, 100 μM and 200 μM, 40 hours post-treatment", "value": "non-significant cell death"}, {"measurement": "cell death", "setting": "BJAB B cells; 100 μM and 200 μM, 40 hours post-treatment", "value": "non-significant cell death"}, {"measurement": "cell death", "setting": "[1]; human primary CD4+ T cells, 100 μM and 200 μM, 40 hours post-treatment", "value": "non-significant cell death"}, {"measurement": "cell death", "setting": "human primary monocytes", "value": "non-significant cell death"}, {"measurement": "change in nuclear c-Rel levels", "setting": "c-Rel", "value": "no significant change"}, {"measurement": "binding of c-Rel to CD28RE DNA", "setting": "O-GlcNAcylated c-Rel [4]", "value": "reduced the binding of c-Rel"}, {"measurement": "K562 cell death", "setting": "Leukemia K562 cells", "value": "nearly comparable to that caused by known OGT inhibitor OSMI1"}]}
{"smiles": "CCCN(CC(=O)N(CC(N)=O)Cc1ccccc1)C(=O)CN(CCO)C(=O)CNCc1ccco1", "note": "[Compound 3] (H-[NFurfurylGly][Gly(N-CH2CH2OH)][NPrGly][Nphe]-NH2)", "values": [{"measurement": "inhibitory effect on GMCSF expression, scrambled peptoid control", "setting": "O-GlcNAcylated c-Rel [2]; FIG. 3 bottom right", "value": "no inhibitory effect"}, {"measurement": "change in nuclear c-Rel levels", "setting": "c-Rel", "value": "no significant change"}, {"measurement": "binding of c-Rel to CD28RE DNA", "setting": "O-GlcNAcylated c-Rel [4]", "value": "did not block the binding of c-Rel"}, {"measurement": "K562 cell death", "setting": "Leukemia K562 cells", "value": "no significant cell death"}]}
{"smiles": "COc1ccccc1[C@@H](NS(=O)(=O)c1ccc2[nH]c(=O)ccc2c1)C(=O)N(Cc1ccco1)Cc1cccs1", "note": "[OSMI1, reference compound]", "values": [{"measurement": "expression of GMCSF", "setting": "O-GlcNAcylated c-Rel [2]", "value": "well below the TCR-induced levels"}, {"measurement": "expression of IL-2", "setting": "O-GlcNAcylated c-Rel [2]", "value": "well below the TCR-induced levels"}]}
